“And” between values parts separate entries of the source, which are not always exact repeats. Identical values can stand only once. Like-named read-outs stand apart in the source and are kept apart here.
Biological target: T1, PRDM7 (Homo sapiens, UniProt Q9NQW5)
T1 sequence (Q9NQW5 1-492): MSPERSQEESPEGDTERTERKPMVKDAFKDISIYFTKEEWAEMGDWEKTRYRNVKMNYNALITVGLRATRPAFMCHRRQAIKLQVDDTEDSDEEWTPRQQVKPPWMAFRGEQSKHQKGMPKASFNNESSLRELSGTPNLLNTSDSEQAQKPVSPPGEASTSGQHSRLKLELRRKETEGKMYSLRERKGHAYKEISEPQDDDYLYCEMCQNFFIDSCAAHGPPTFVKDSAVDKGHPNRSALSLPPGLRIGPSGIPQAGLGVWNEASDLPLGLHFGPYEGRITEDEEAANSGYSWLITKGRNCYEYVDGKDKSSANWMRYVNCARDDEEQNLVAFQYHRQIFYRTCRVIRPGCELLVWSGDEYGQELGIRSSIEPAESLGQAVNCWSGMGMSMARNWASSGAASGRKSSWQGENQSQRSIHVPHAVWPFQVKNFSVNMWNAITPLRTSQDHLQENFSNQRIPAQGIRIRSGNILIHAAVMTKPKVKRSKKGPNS
Assay: PRDM7 methyltransferase activity assay (3H-SAM scintillation proximity assay)
Format: biochemical
Protocol: Methyltransferase activity assays for PRDM9 (amino acids: 195–415) were performed by monitoring the incorporation of tritium-labeled methyl group from ^3H-SAM to H3 (1–25) peptide using scintillation proximity assay (SPA). The enzymatic reactions were performed at 23 °C with 30 min incubation in 20 mM Tris-HCl (pH 7.5), 5 mM DTT, 0.01% Triton X-100 and 1% DMSO containing 71 μM of SAM (5 μM of ^3H-SAM), 4 μM of biotinylated H3 (1–25) peptide and 5 nM of PRDM9. For PRDM7, reactions were performed at 23 °C with 90 min incubation in 20 mM BTP pH 9.0, 5 mM DTT, 0.01% Triton X-100 and 1% DMSO containing 900 μM of SAM (5 μM of ^3H-SAM), 4 μM of biotinylated H3 (1–25) peptide and 100 nM of enzyme. Compounds were titrated from 3 nM to 50 μM and from 200 nM to 200 μM for PRDM9 and PRDM7, respectively. To stop the reactions, 10 μL of 7.5 M guanidine hydrochloride was added to 10 μL of reaction mixture, followed by 60 μL of buffer (20 mM Tris, pH 8.0), mixed, and transferred to a 384-well streptavidin coated Flash-plate. After mixing, the mixtures in Flash-plate were incubated for 2 h, and the CPM counts were measured using TopCount plate reader. All enzymatic reactions were performed in triplicate, and IC50 values were determined by fitting the data to Four Parameter Logistic equation using the GraphPad Prism software.

[1] = 0.195312 µM compound, 0.195312 µM
[2] = 0.195312 µM compound, read-out: PRDM7-Activity %, Average (n=3)
[3] = 0.195312 µM compound, read-out: PRDM7-Activity %, single experiments
[4] = 0.390625 µM compound, 0.390625 µM
[5] = 0.390625 µM compound, read-out: PRDM7-Activity %, Average (n=3)
[6] = 0.390625 µM compound, read-out: PRDM7-Activity %, single experiments
[7] = 0.78125 µM compound, 0.78125 µM
[8] = 0.78125 µM compound, read-out: PRDM7-Activity %, Average (n=3)
[9] = 0.78125 µM compound, read-out: PRDM7-Activity %, single experiments
[10] = 1.5625 µM compound, read-out: PRDM7-Activity %, Average (n=3)
[11] = 1.5625 µM compound, read-out: PRDM7-Activity %, single experiments
[12] = 3.125 µM compound, read-out: PRDM7-Activity %, Average (n=3)
[13] = 3.125 µM compound, read-out: PRDM7-Activity %, single experiments
[14] = 6.25 µM compound, read-out: PRDM7-Activity %, Average (n=3)
[15] = 6.25 µM compound, read-out: PRDM7-Activity %, single experiments
[16] = 12.5 µM compound, read-out: PRDM7-Activity %, Average (n=3)
[17] = 12.5 µM compound, read-out: PRDM7-Activity %, single experiments
[18] = 25 µM compound, read-out: PRDM7-Activity %, Average (n=3)
[19] = 25 µM compound, read-out: PRDM7-Activity %, single experiments
[20] = 50 µM compound, read-out: PRDM7-Activity %, Average (n=3)
[21] = 50 µM compound, read-out: PRDM7-Activity %, single experiments
[22] = 100 µM compound, read-out: PRDM7-Activity %, Average (n=3)
[23] = 100 µM compound, read-out: PRDM7-Activity %, single experiments
[24] = 200 µM compound, read-out: PRDM7-Activity %, Average (n=3)

SMILES | PRDM7-Activity %, single experiments [1] | activity at 0.195312 µM [2] [%] | activity at 0.195312 µM [3] [%] | PRDM7-Activity %, single experiments [4] | activity at 0.390625 µM [5] [%] | activity at 0.390625 µM [6] [%] | PRDM7-Activity %, single experiments [7] | activity at 0.78125 µM [8] [%] | activity at 0.78125 µM [9] [%] | PRDM7-Activity %, single experiments (1.5625 µM compound, 1.5625 µM) | activity at 1.5625 µM [10] [%] | activity at 1.5625 µM [11] [%] | PRDM7-Activity %, single experiments (3.125 µM compound, 3.125 µM) | activity at 3.125 µM [12] [%] | activity at 3.125 µM [13] [%] | PRDM7-Activity %, single experiments (6.25 µM compound, 6.25 µM) | activity at 6.25 µM [14] [%] | activity at 6.25 µM [15] [%] | PRDM7-Activity %, single experiments (12.5 µM compound, 12.5 µM) | activity at 12.5 µM [16] [%] | further results
COc1cc(OC)cc(-c2noc(N3CCN(C)C4(CCN(c5ccccc5)CC4)C3)n2)c1 [MRK-740-NC] | 100.2% and 97.4% | 99.4 | 101 | 100.3% and 102.2% | 102 | 104 | 94.78% and 94.12% | 92.2 | 87.6 | 107.5% and 100.6% | 102 | 98.2 | 102.8% and 99.77% | 97.8 | 90.9 | 83.67% and 87.1% | 90.6 | 101 | 102.7% and 91.72% | 94.2 | PRDM7 inhibition (in words): no significant PRDM7 inhibition; activity at 12.5 µM [17]: 88.2%; PRDM7-Activity %, single experiments (25 µM compound, 25 µM): 99.4% and 100.5%; activity at 25 µM [18]: 101%; activity at 25 µM [19]: 105%; PRDM7-Activity %, single experiments (50 µM compound, 50 µM): 93.21% and 92.53%; activity at 50 µM [20]: 93%; activity at 50 µM [21]: 93.3%; PRDM7-Activity %, single experiments (100 µM compound, 100 µM): 98.05% and 87.79%; activity at 100 µM [22]: 89.8%; activity at 100 µM [23]: 83.5%; PRDM7-Activity %, single experiments (200 µM compound, 200 µM): 98.85% and 73.14% and 89.14%; activity at 200 µM [24]: 87%
COc1cc(OC)cc(-c2noc(N3CCN(C)C4(CCN(c5ccnc(C)c5)CC4)C3)n2)c1 [MRK-740] | 104.6% and 100.9% | 103 | 104 | 104.3% and 107.1% | 105 | 103 | 95.5% and 104.5% | 99.4 | 98.3 | 97.86% and 90.81% | 94.9 | 96.1 | 99.32% and 89.67% | 95.4 | 97.1 | 81.54% and 82.05% | 81.6 | 81.2 | 70.89% and 77.38% | 74.1 | activity at 12.5 µM [17]: 74%; PRDM7-Activity %, single experiments (25 µM compound, 25 µM): 64.86% and 73.52%; activity at 25 µM [18]: 69.3%; activity at 25 µM [19]: 69.4%; activity at 50 µM [20]: 46.3%; activity at 50 µM [21]: 47.1%; PRDM7-Activity %, single experiments (100 µM compound, 100 µM): 28% and 33.38%; activity at 100 µM [22]: 30%; activity at 100 µM [23]: 28.6%; PRDM7-Activity %, single experiments (200 µM compound, 200 µM): 12.96% and 18.48%; activity at 200 µM [24]: 15.8%; activity at 200 µM (200 µM compound, read-out: PRDM7-Activity %, single experiments): 16.1%; IC50 (biotinylated H3 (1–25) peptide): 45 ± 7 µM

From article PMC6917776, “Discovery of a chemical probe for PRDM9” (Nature Communications, 2019)
